# Values of other authors in patent publication US20240226035A1, “Precision Medicine Approach to Treating Parkinson's Disease with a Monoamine Oxidase Inhibitor, an Antioxidant, or Both” (UNIVERSITY OF NORTH TEXAS HEALTH SCIENCE CENTER AT FORT …, priority 2021, published 2024).
# Conditions: DATATOP trial
# [1] = deprenyl 10 mg/day, PD patients
smiles,measurement,setting,value
C#CCN(C)[C@H](C)Cc1ccccc1 [deprenyl],effect on reducing PD symptoms,"deprenyl 10 mg/d, after 14 months, trial discontinued and became open-label",positive effects
same,postponing levodopa-related adverse events or extending life,[1],no benefit
same,time until disability that warranted initiation of levodopa therapy,[1],delayed time until disability that warranted initiation of levodopa therapy
